Results on six compounds are retold here after patent publication US20200108069A1, “Treatment of Fibrotic Conditions” (ANGLIA RUSKIN UNIVERSITY HIGHER EDUCATION CORPORATION, priority 2018, published 2020).

In assay [1] the test system is fibroblasts isolated from human tunica albuginea (TA); TGF-β1-induced myofibroblast transformation. In words: In Cell ELISA (ICE) phenotypic screening assay of TGF-β1-induced myofibroblast transformation (α-SMA/DNA staining). It counts as cell-based. Conditions: for IC50: co-incubation with 10 ng/ml TGF-β1 for 72 hours, α-SMA/DNA staining ratio, read-out: IC50, inhibition of TGF-β1-induced myofibroblasts transformation. The source says: Tunica albuginea tissue samples were collected from patients undergoing surgery at University College London Hospital (UCLH), London, UK for penile cancer or PD. All patients gave fully informed written consent to the study. The study was approved by independent research ethics committees (NRES Committee East of England 12/EE/0170 and NRES Committee North of Scotland 15/NS/0051). PD plaque tissue was obtained from patients with chronic PD undergoing a Lue procedure (plaque incision and grafting). Plaque tissue would have otherwise been discarded. Non-plaque TA was obtained from PD patients undergoing a Nesbit procedure whereby non-fibrotic TA tissue was excised from the opposite side of the plaque. TA tissue samples from patients with penile cancer were taken from the proximal side away from the tumour, with the tumour showing negative margins on histological examination.
Tissue samples were carefully dissected to ensure that all cavernosal tissue was removed from the tunica albuginea (TA). To establish fibroblast cultures, TA fragments were seeded in 6-well tissue culture plates (Nunc, Fisher Scientific, UK) as described previously16. The tissue pieces were incubated in DMEM-F12 (GIBCO, Invitrogen, UK) containing 10% FCS (Fisher Scientific, UK) and 1% penicillin-streptomycin (GIBCO, Invitrogen, UK) at 37° C., 5% CO2 for 5-7 days. Tissue fragments were carefully removed using forceps upon outgrowth of cells. Passages 2 to 4 were used for the rest of the experiments.
Cells were seeded onto 96 well optical flat bottom black microplates (Nunc, Fisher Scientific, UK) at 5×10^3 cells per well. After overnight attachment they were incubated with or without 10 ng/ml TGF-β1 for 72 hours. The cells were then fixed using 4% paraformaldehyde, and blocked with 10% donkey serum and 0.1% Triton X-100 in PBS. The cells were then incubated with anti-α-SMA antibody (1:3,000; Sigma Aldrich, UK) for 2 h. Afterwards cells were incubated with donkey anti-mouse secondary antibody conjugated to an infrared dye which emits at 800 nm (1:500; IRdye 800CW; Li-Cor, UK) and a nuclear counterstain at that emits at 700 nm (1:1,000; DRAQS, Biostatus, UK) for 1 h. The plate was scanned using an infrared imaging system (Odyssey CLx imager, LI-COR, UK) at both the 700 nm and 800 nm wavelengths.
We have isolated primary fibroblasts from the plaque and non-plaque TA of patients with PD. We also isolated primary fibroblasts from TA of patients with penile cancer as non-fibrotic controls.

In assay [2] the test system is TGF-β1 injection into the rat TA (animal model for PD). In words: Animal model for PD: assessment of erectile function (intracavernous pressure, ICP). It counts as in vivo, Male Sprague-Dawley rats. Conditions: tamoxifen 5 mg/kg/day i.p., vardenafil 1.5 mg/kg/day drinking water, 5 weeks.
The test system of assay [3] is TGF-β1-induced myofibroblast collagen contraction, TA-derived fibroblasts. In words: Collagen gel contraction assay (fibroblast populated collagen lattices). Type of assay: cell-based, human. Conditions: 10 ng/ml TGF-β1; lattices released after 72 h, contraction observed for 8 h. The procedure:
Images were analysed using ImageJ software by measuring the surface area of the contracting lattice. Contraction was calculated as percentage of the surface of the unreleased lattice. Data is shown as percentage of maximum contraction of vehicle control. The two classes of drugs were then tested in functional assays. Firstly, we tested their efficacy in inhibiting collagen gel contraction as a measure of myofibroblast contractility; a characteristic function of myofibroblasts, which separates them from fibroblasts. […] Secondly, we tested the drugs' efficacy in inhibiting ECM protein production, which is again one of the critical characteristic functions of myofibroblasts. […] FIG. 4).

The test system of assay [4] is TGF-β1 injection into the rat TA (animal model for PD), penile fibrosis. In words: Animal model for PD: molecular and histological analysis of penile tissue (qPCR, Western blot, immunohistochemistry). It counts as in vivo, Male Sprague-Dawley rats. The source says: The animal model for PD was first described by […] Lue^18 and modified by Bivalacqua and Hellstrom^19. Male Sprague-Dawley rats (10-12 weeks old) were housed in a regulated environment with a 12-hour light/dark cycle in a standard experimental laboratory. The animals had free access to food and water ad libitum. Fifty male Sprague-Dawley rats were divided into 5 groups: A: sham (injection of vehicle citrate buffer), B: […] Treatment was initiated at the day after injury and continued for 5 weeks followed by a 48 hours wash-out period. The High-Capacity cDNA Reverse Transcription Kit (Applied Biosystems) was used according to the manufacturer's instructions to transcribe RNA to cDNA. One μg in 10 μl were added to 10 μl of the master mix for reverse transcription for a total reaction volume of 20 μl. After reverse transcription the cDNA was diluted 1:10 for qPCR. The Applied BiosystemsTM TaqManTM Fast Advanced Master Mix was used for qPCR. Gene specific primer pairs for GAPDH, beta-actin, alpha smooth muscle actin, elastin, and collagens I, III, and V were purchased from Applied Biosystems. […] Data was analysed using the 2-ΔΔCt method for relative quantifications. […] Statistical significance, unless otherwise stated, was calculated using one or two-way ANOVA and Student's t-test for unpaired means (two-sided). […]

Assay [5] concerns TGF-β1-induced myofibroblast ECM protein production, cells derived from TA tissue. In words: ECM production assay. Type of assay: cell-based. Conditions: Homo sapiens, 168 h, 10 ng/ml TGF-β1 for 7 days. Here is the method:
Cells were seeded onto 96 well optical flat bottom black microplates (Nunc, Fisher Scientific, UK) at 5×10^3 cells per well. After overnight attachment, they were stimulated with or without 10 ng/ml TGF-β1 and/or compounds for 7 days. DRAQS in PBS (1:1,000) was added and cells were incubated for 5 min at 37° C., 5% CO2 before scanning the plate to obtain nuclear staining. […] Afterwards ECM was stained either with Coomassie Blue (total ECM) overnight at 4° C. or with primary antibodies (collagen I, abcam; collagen III, Millipore; collagen V, abcam: fibronectin, Millipore) at 1:1000 for 1 h on a shaker, followed by incubation with secondary antibody and scanning the plate using an infrared imaging system (Odyssey CLx imager, LI-COR, UK) at both the 700 nm and 800 nm wavelengths. Results were normalized to the cell number before lysis.

The mark [6] stands for this setting: Homo sapiens, Fibroblast, read-out: Percentage of inhibition of TGF-β1 induced myofibroblast transformation, Tamoxifen only, 10 ng/ml TGF-β1, 72 hours.
Setting [7] is: Homo sapiens, Fibroblast, 10 ng/ml TGF-β1, 72 hours, read-out: Percentage of inhibition of TGF-β1 induced myofibroblast transformation, Vardenafil only.

Each structure is given as a SMILES string. Read-outs that look alike come from different tables or passages of the source.

For the compound `Cc1cccc(-c2[nH]c(C(C)(C)C)nc2-c2ccc3c(c2)OCO3)n1` [SB505124], the IC50 in assay [1] was 0.6 µM.
Regarding `O=C(c1ccc(OCCN2CCCCC2)cc1)c1c(-c2ccc(O)cc2)sc2cc(O)ccc12` [raloxifene], in assay [1], the IC50 came out at 7 µM.
`CCCc1nn(C)c2c(=O)[nH]c(-c3cc(S(=O)(=O)N4CCN(C)CC4)ccc3OCC)nc12` [sildenafil]: the IC50 in assay [1] (Homo sapiens, Fibroblast) amounted to 15 µM.
Turning to `CN1CC(=O)N2[C@H](c3ccc4c(c3)OCO4)c3[nH]c4ccccc4c3C[C@@H]2C1=O` [tadalafil], the IC50 in assay [1] (Homo sapiens, Fibroblast) turned out to be 3.5 µM.
With `CC/C(=C(\c1ccccc1)c1ccc(OCCN(C)C)cc1)c1ccccc1` [tamoxifen], the “Percentage of inhibition of TGF-β1 induced myofibroblast transformation, Tamoxifen only” value in assay [1] (100 μM, 10 ng/ml TGF-β1, 72 hours) is reported as “cell death”. In assay [1] (setting [6]), the inhibition at 0.3 µM amounted to 10 ± 3%, the inhibition at 1 µM was 10 ± 2%, the inhibition at 3 µM was determined as 10 ± 3% and the inhibition at 10 µM was 25 ± 3%. Also, the “TGF-β1-induced decrease in erectile function (ICP) by 55%” value in assay [2] is on record as “prevented”. Also, in assay [3], the “concentration at which TGF-β1-induced contraction of collagen was inhibited” value was determined as 1 µM. Moreover, the “TGF-β1-induced upregulation of collagen expression (collagens I, III, V mRNA) in penile tissue” value in assay [4] (5 weeks treatment, qPCR) is listed as “prevented”. Also, in assay [4] (FIG. 5), the “penile fibrosis in an animal model for PD” value is “ameliorate penile fibrosis”.
As for `CCCc1nc(C)c2c(=O)[nH]c(-c3cc(S(=O)(=O)N4CCN(CC)CC4)ccc3OCC)nn12` [vardenafil], in assay [1] (setting [7]), the inhibition at 0.3 µM amounted to 3 ± 3%. In addition, in assay [1] (setting [7]), the inhibition at 1 µM was 10 ± 1%. Moreover, the inhibition at 3 µM in assay [1] (setting [7]) stood at 8 ± 2%. In addition, in assay [1] (setting [7]), the inhibition at 10 µM stood at 17 ± 2%. Besides, the inhibition at 30 µM in assay [1] (Homo sapiens, Fibroblast, 30 μM, 10 ng/ml TGF-β1, 72 hours, read-out: Percentage of inhibition of TGF-β1 induced myofibroblast transformation, Vardenafil only) turned out to be 25 ± 1%. Further, in assay [1] (Homo sapiens, Fibroblast, 100 μM, 10 ng/ml TGF-β1, 72 hours, read-out: Percentage of inhibition of TGF-β1 induced myofibroblast transformation, Vardenafil only), the inhibition at 100 µM amounted to 48 ± 1%. The 50% inhibitory concentration (IC50) amounted to 30 µM in assay [1] (Homo sapiens, Fibroblast); 23 µM in assay [5] (read-out: IC50, TGF-β1-induced ECM protein production: collagen I); 17 µM in assay [5] (read-out: IC50, TGF-β1-induced ECM protein production: collagen III); 23 µM in assay [5] (read-out: IC50, TGF-β1-induced ECM protein production: collagen V); 44 µM in assay [5] (read-out: IC50, TGF-β1-induced ECM protein production: fibronectin). Also, the “concentration at which TGF-β1-induced contraction of collagen was inhibited” value in assay [3] amounted to 10 µM.
